What was measured:
Assay in all cases: relative viability (nuclei count vs DMSO), 5 days (fraction); higher = more cells survive
[1] = tested on: LCLC-97TM1
Procedure, shortened: (§1)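 Cells from lung cancer lines were seeded into 1536-well plates and, one day later, dosed by pin tool. Treatments were either a single drug or a fixed dose of an anchor drug with five library-drug doses (not always all listed) in √10 steps. After 5 days, nuclei were stained in a one-step fixation (final 0.05% Triton X-100, 1% formaldehyde, 1 ug/ml Hoechst) and counted on 4× images, and relative viability is the treated-to-vehicle nuclei ratio, as the median of duplicate plates.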

[2] = tested on: NCI-H596
Procedure, shortened: as §1

[3] = tested on: LXF-289
Procedure, shortened: as §1

[4] = tested on: UMC-11
Procedure, shortened: as §1

[5] = tested on: HCC-15
Procedure, shortened: as §1

[6] = tested on: NCI-H2342
Procedure, shortened: as §1

[7] = tested on: NCI-H322M
Procedure, shortened: as §1

[8] = tested on: LU99A
Procedure, shortened: as §1

[9] = tested on: NCI-H650
Procedure, shortened: as §1

[10] = tested on: NCI-H1651
Procedure, shortened: as §1

[11] = tested on: HCC-78
Procedure, shortened: as §1

[12] = tested on: NCI-H1944
Procedure, shortened: as §1

[13] = tested on: LC-2-ad
Procedure, shortened: as §1

[14] = tested on: ChaGo-K-1
Procedure, shortened: as §1

[15] = tested on: SK-MES-1
Procedure, shortened: as §1

[16] = tested on: PC-3 [JPC-3]
Procedure, shortened: as §1

[17] = tested on: NCI-H1666
Procedure, shortened: as §1

[18] = tested on: LK-2
Procedure, shortened: as §1

[19] = tested on: NCI-H838
Procedure, shortened: as §1

[20] = tested on: NCI-H358
Procedure, shortened: as §1

[21] = tested on: NCI-H2087
Procedure, shortened: as §1

[22] = tested on: NCI-H661
Procedure, shortened: as §1

[23] = tested on: BEN
Procedure, shortened: as §1

NC(=O)Nc1cc(-c2cccc(F)c2)sc1C(=O)N[C@H]1CCCNC1 [AZD7762] + N=C(N)NC(=N)NCCc1ccccc1 [Phenformin] (partner 250 µM)
relative viability ([1]; first compound 0.01 µM): 0.429 | relative viability ([1]; first compound 0.03162 µM): 0.434 | relative viability ([1]; first compound 0.1 µM): 0.479 | relative viability ([1]; first compound 0.3162 µM): 0.406 | relative viability ([1]; first compound 1 µM): 0.433 | relative viability ([2]; first compound 0.01 µM): 0.701 | relative viability ([2]; first compound 0.03162 µM): 0.836 | relative viability ([2]; first compound 0.1 µM): 0.641 | relative viability ([2]; first compound 0.3162 µM): 0.809 | relative viability ([2]; first compound 1 µM): 0.673 | relative viability ([3]; first compound 0.01 µM): 0.49 | relative viability ([3]; first compound 0.03162 µM): 0.54 | relative viability ([3]; first compound 0.1 µM): 0.508 | relative viability ([3]; first compound 0.3162 µM): 0.445 | relative viability ([3]; first compound 1 µM): 0.526 | relative viability ([4]; first compound 0.01 µM): 0.372 | relative viability ([4]; first compound 0.03162 µM): 0.322 | relative viability ([4]; first compound 0.1 µM): 0.238 | relative viability ([4]; first compound 0.3162 µM): 0.25 | relative viability ([4]; first compound 1 µM): 0.234 | relative viability ([5]; first compound 0.01 µM): 0.483 | relative viability ([5]; first compound 0.03162 µM): 0.475 | relative viability ([5]; first compound 0.1 µM): 0.432 | relative viability ([5]; first compound 0.3162 µM): 0.473 | relative viability ([5]; first compound 1 µM): 0.445 | relative viability ([6]; first compound 0.01 µM): 0.597 | relative viability ([6]; first compound 0.03162 µM): 0.605 | relative viability ([6]; first compound 0.1 µM): 0.72 | relative viability ([6]; first compound 0.3162 µM): 0.567 | relative viability ([6]; first compound 1 µM): 0.56 | relative viability ([7]; first compound 0.01 µM): 0.704 | relative viability ([7]; first compound 0.03162 µM): 0.85 | relative viability ([7]; first compound 0.1 µM): 0.747 | relative viability ([7]; first compound 0.3162 µM): 0.36 | relative viability ([7]; first compound 1 µM): 0.284 | relative viability ([8]; first compound 0.01 µM): 0.777 | relative viability ([8]; first compound 0.03162 µM): 0.934 | relative viability ([8]; first compound 0.1 µM): 0.868 | relative viability ([8]; first compound 0.3162 µM): 0.795 | relative viability ([8]; first compound 1 µM): 0.512 | relative viability ([9]; first compound 0.01 µM): 0.453 | relative viability ([9]; first compound 0.03162 µM): 0.46 | relative viability ([9]; first compound 0.1 µM): 0.49 | relative viability ([9]; first compound 0.3162 µM): 0.446 | relative viability ([9]; first compound 1 µM): 0.538 | relative viability ([10]; first compound 0.01 µM): 0.36 | relative viability ([10]; first compound 0.03162 µM): 0.434 | relative viability ([10]; first compound 0.1 µM): 0.319 | relative viability ([10]; first compound 0.3162 µM): 0.268 | relative viability ([10]; first compound 1 µM): 0.17 | relative viability ([11]; first compound 0.01 µM): 0.737 | relative viability ([11]; first compound 0.03162 µM): 1.12 | relative viability ([11]; first compound 0.1 µM): 0.766 | relative viability ([11]; first compound 0.3162 µM): 0.718 | relative viability ([11]; first compound 1 µM): 0.604 | relative viability ([12]; first compound 0.01 µM): 0.196 | relative viability ([12]; first compound 0.03162 µM): 0.23 | relative viability ([12]; first compound 0.1 µM): 0.231 | relative viability ([12]; first compound 0.3162 µM): 0.273 | relative viability ([12]; first compound 1 µM): 0.21 | relative viability ([13]; first compound 0.01 µM): 0.645 | relative viability ([13]; first compound 0.03162 µM): 0.595 | relative viability ([13]; first compound 0.1 µM): 0.555 | relative viability ([13]; first compound 0.3162 µM): 0.592 | relative viability ([13]; first compound 1 µM): 0.342 | relative viability ([14]; first compound 0.01 µM): 0.517 | relative viability ([14]; first compound 0.03162 µM): 0.513 | relative viability ([14]; first compound 0.1 µM): 0.479 | relative viability ([14]; first compound 0.3162 µM): 0.468 | relative viability ([14]; first compound 1 µM): 0.496 | relative viability ([15]; first compound 0.01 µM): 0.699 | relative viability ([15]; first compound 0.03162 µM): 0.663 | relative viability ([15]; first compound 0.1 µM): 0.709 | relative viability ([15]; first compound 0.3162 µM): 0.501 | relative viability ([15]; first compound 1 µM): 0.158 | relative viability ([16]; first compound 0.01 µM): 0.485 | relative viability ([16]; first compound 0.03162 µM): 0.503 | relative viability ([16]; first compound 0.1 µM): 0.449 | relative viability ([16]; first compound 0.3162 µM): 0.484 | relative viability ([16]; first compound 1 µM): 0.405 | relative viability ([17]; first compound 0.01 µM): 0.549 | relative viability ([17]; first compound 0.03162 µM): 0.596 | relative viability ([17]; first compound 0.1 µM): 0.532 | relative viability ([17]; first compound 0.3162 µM): 0.554 | relative viability ([17]; first compound 1 µM): 0.467 | relative viability ([18]; first compound 0.01 µM): 0.396 | relative viability ([18]; first compound 0.03162 µM): 0.75 | relative viability ([18]; first compound 0.1 µM): 0.384 | relative viability ([18]; first compound 0.3162 µM): 0.45 | relative viability ([18]; first compound 1 µM): 0.31 | relative viability ([19]; first compound 0.01 µM): 0.538 | relative viability ([19]; first compound 0.03162 µM): 0.566 | relative viability ([19]; first compound 0.1 µM): 0.669 | relative viability ([19]; first compound 0.3162 µM): 0.524 | relative viability ([19]; first compound 1 µM): 0.164 | relative viability ([20]; first compound 0.01 µM): 0.305 | relative viability ([20]; first compound 0.03162 µM): 0.401 | relative viability ([20]; first compound 0.1 µM): 0.334 | relative viability ([20]; first compound 0.3162 µM): 0.242 | relative viability ([20]; first compound 1 µM): 0.185 | relative viability ([21]; first compound 0.01 µM): 0.434 | relative viability ([21]; first compound 0.03162 µM): 0.513 | relative viability ([21]; first compound 0.1 µM): 0.566 | relative viability ([21]; first compound 0.3162 µM): 0.553 | relative viability ([21]; first compound 1 µM): 0.554 | relative viability ([22]; first compound 0.01 µM): 0.272 | relative viability ([22]; first compound 0.03162 µM): 0.269 | relative viability ([22]; first compound 0.1 µM): 0.232 | relative viability ([22]; first compound 0.3162 µM): 0.265 | relative viability ([22]; first compound 1 µM): 0.262 | relative viability ([23]; first compound 0.01 µM): 0.316 | relative viability ([23]; first compound 0.03162 µM): 0.271 | relative viability ([23]; first compound 0.1 µM): 0.222 | relative viability ([23]; first compound 0.3162 µM): 0.266 | relative viability ([23]; first compound 1 µM): 0.245
